PubChem BioAssay AID1918954 (Molecular Pharmacology Branch, DTP, NCI, 2023)

Test system: MDA-MB-468 complex spheroids with HUVEC/MSC, viability
Test: Anticancer human tumor MDA-MB-468 cell line growth inhibition;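 further: spheroids exposed to agents for seven days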;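 on viability, T/C: 100% = DMSO vehicle control viability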
Conditions: for IC50: curve of first compound; for viability, T/C: stronger effect = lower value; active means viability on the fitted dose curve at most 10% of control; inactive means the rest
Method in brief: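 Multicellular complex spheroids of tumor cells with human endothelial cells (HUVEC) and mesenchymal stem cells; the LSD1 inhibitor iadademstat was combined with standard-of-care or investigational agents. Top concentration at or near clinical Cmax, half-log dilutions; final DMSO ≤0.25%.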

[1] = second compound 0.1 µM, first compound 0.00316 µM
[2] = second compound 0.1 µM, first compound 0.01 µM
[3] = second compound 0.1 µM, first compound 0.0316 µM
[4] = second compound 0.1 µM, first compound 0.1 µM
[5] = second compound 0.1 µM, first compound 0.316 µM
[6] = second compound 0.1 µM, first compound 1 µM
[7] = second compound 0.316 µM, first compound 0.00316 µM
[8] = second compound 0.316 µM, first compound 0.01 µM
[9] = second compound 0.316 µM, first compound 0.0316 µM
[10] = second compound 0.316 µM, first compound 0.1 µM
[11] = second compound 0.316 µM, first compound 0.316 µM
[12] = second compound 0.316 µM, first compound 1 µM
[13] = second compound 1 µM, first compound 0.00316 µM
[14] = second compound 1 µM, first compound 0.01 µM
[15] = second compound 1 µM, first compound 0.0316 µM
[16] = second compound 1 µM, first compound 0.1 µM
[17] = second compound 1 µM, first compound 0.316 µM
[18] = second compound 1 µM, first compound 1 µM
[19] = second compound 3.16 µM, first compound 0.00316 µM
[20] = second compound 3.16 µM, first compound 0.01 µM
[21] = second compound 3.16 µM, first compound 0.0316 µM
[22] = second compound 3.16 µM, first compound 0.1 µM
[23] = second compound 3.16 µM, first compound 0.316 µM
[24] = second compound 3.16 µM, first compound 1 µM
[25] = second compound 10 µM, first compound 0.00316 µM
[26] = second compound 10 µM, first compound 0.01 µM
[27] = second compound 10 µM, first compound 0.0316 µM
[28] = second compound 10 µM, first compound 0.1 µM
[29] = second compound 10 µM, first compound 0.316 µM
[30] = second compound 10 µM, first compound 1 µM

O=C(C=Cn1cnc(-c2cc(C(F)(F)F)cc(C(F)(F)F)c2)n1)NNc1cnccn1 + NC1CC1c1ccc(-c2cccc(O)c2)cc1
< 3.16 nM: IC50 (second compound 0.1 µM) | IC50 (second compound 0.316 µM) | IC50 (second compound 1 µM) | IC50 (second compound 3.16 µM) | IC50 (second compound 10 µM)
inactive: viability, T/C [1] 38.1% | viability, T/C [2] 30.3% | viability, T/C [3] 20.7% | viability, T/C [7] 36.9% | viability, T/C [8] 31% | viability, T/C [9] 19.6% | viability, T/C [13] 38.5% | viability, T/C [14] 28.9% | viability, T/C [15] 18.1% | viability, T/C [19] 33.8% | viability, T/C [20] 34.2% | viability, T/C [21] 19.7% | viability, T/C [25] 31% | viability, T/C [26] 28.9% | viability, T/C [27] 18.3%
active: viability, T/C [4] 3.44% | viability, T/C [5] 1.7% | viability, T/C [6] 0.86% | viability, T/C [10] 3.54% | viability, T/C [11] 1.34% | viability, T/C [12] 0.96% | viability, T/C [16] 3.32% | viability, T/C [17] 1.45% | viability, T/C [18] 0.94% | viability, T/C [22] 3.27% | viability, T/C [23] 1.83% | viability, T/C [24] 1.13% | viability, T/C [28] 4.7% | viability, T/C [29] 2.04% | viability, T/C [30] 1.62%

COc1cc(C2c3cc4c(cc3C(OC3OC5COC(C)OC5C(O)C3O)C3COC(=O)C23)OCO4)cc(OC)c1O (stereo not given) + NC1CCC(NC2CC2c2ccccc2)CC1
99.2 nM: IC50 (second compound 0.1 µM)
93.1 nM: IC50 (second compound 0.316 µM)
active: viability, T/C (second compound 0.316 µM, first compound 3 µM) 9.23% | viability, T/C (second compound 1 µM, first compound 3 µM) 8.57%
76.6 nM: IC50 (second compound 3.16 µM)
inactive: viability, T/C (second compound 0.1 µM, first compound 0.00949 µM) 83.6% | viability, T/C (second compound 0.1 µM, first compound 0.03 µM) 91.3% | viability, T/C (second compound 0.1 µM, first compound 0.0949 µM) 51.6% | viability, T/C (second compound 0.1 µM, first compound 0.3 µM) 13.8% | viability, T/C (second compound 0.1 µM, first compound 0.949 µM) 10.8% | viability, T/C (second compound 0.1 µM, first compound 3 µM) 8.8% | viability, T/C (second compound 0.316 µM, first compound 0.00949 µM) 82.6% | viability, T/C (second compound 0.316 µM, first compound 0.03 µM) 72.3% | viability, T/C (second compound 0.316 µM, first compound 0.0949 µM) 51.2% | viability, T/C (second compound 0.316 µM, first compound 0.3 µM) 14.3% | viability, T/C (second compound 0.316 µM, first compound 0.949 µM) 12.5% | viability, T/C (second compound 1 µM, first compound 0.00949 µM) 90.7% | viability, T/C (second compound 1 µM, first compound 0.03 µM) 77.2% | viability, T/C (second compound 1 µM, first compound 0.0949 µM) 50.8% | viability, T/C (second compound 1 µM, first compound 0.3 µM) 13.8% | viability, T/C (second compound 1 µM, first compound 0.949 µM) 12.8% | viability, T/C (second compound 3.16 µM, first compound 0.00949 µM) 67.6% | viability, T/C (second compound 3.16 µM, first compound 0.03 µM) 68.2% | viability, T/C (second compound 3.16 µM, first compound 0.0949 µM) 45.9% | viability, T/C (second compound 3.16 µM, first compound 0.3 µM) 15.5% | viability, T/C (second compound 3.16 µM, first compound 0.949 µM) 15.3% | viability, T/C (second compound 3.16 µM, first compound 3 µM) 8.59% | viability, T/C (second compound 10 µM, first compound 0.00949 µM) 55.5% | viability, T/C (second compound 10 µM, first compound 0.03 µM) 64.5% | viability, T/C (second compound 10 µM, first compound 0.0949 µM) 39.5% | viability, T/C (second compound 10 µM, first compound 0.3 µM) 17.1% | viability, T/C (second compound 10 µM, first compound 0.949 µM) 17.2% | viability, T/C (second compound 10 µM, first compound 3 µM) 11%
52.6 nM: IC50 (second compound 10 µM)
89.2 nM: IC50 (second compound 1 µM)

Nc1ncn(C2CC(O)C(CO)O2)c(=O)n1 (stereo not given) + NC1CCC(NC2CC2c2ccccc2)CC1
5.55 nM: IC50 (second compound 10 µM)
11.6 nM: IC50 (second compound 3.16 µM)
inactive: viability, T/C [1] 88.4% | viability, T/C [2] 59.4% | viability, T/C [3] 28.7% | viability, T/C [4] 14.2% | viability, T/C [7] 84.6% | viability, T/C [8] 48.6% | viability, T/C [9] 28.1% | viability, T/C [10] 15.6% | viability, T/C [11] 9.97% | viability, T/C [13] 83% | viability, T/C [14] 54.9% | viability, T/C [15] 27.5% | viability, T/C [16] 15.4% | viability, T/C [17] 11.1% | viability, T/C [18] 10.6% | viability, T/C [19] 67.7% | viability, T/C [20] 53.4% | viability, T/C [21] 28.2% | viability, T/C [22] 15.5% | viability, T/C [23] 11.3% | viability, T/C [24] 9.32% | viability, T/C [25] 57.4% | viability, T/C [26] 42.2% | viability, T/C [27] 24.4% | viability, T/C [28] 14.4% | viability, T/C [29] 10.6%
active: viability, T/C [5] 9.84% | viability, T/C [6] 8.86% | viability, T/C [12] 10.2% | viability, T/C [30] 10.1%
9.71 nM: IC50 (second compound 0.316 µM)
14.2 nM: IC50 (second compound 0.1 µM)
12.3 nM: IC50 (second compound 1 µM)
